In patent US20240408219A1, “BICYCLIC PEPTIDE LIGAND DRUG CONJUGATES” (priority 2021, published 2024):
“And” between values parts separate entries of the source, which are not always exact repeats. Equal entries are not always repeated. Numbered stars: 1 amine (or outer) side, 2 acyl side, 3 side chain; on linkers, the order of the positions; unused ones are H or OH. Bridge positions count the residues as written; N and C are the ends. Square brackets hold non-standard residues; d marks the D form. Ends that are not written are not given here. 1Nal = N[C@@H](Cc1cccc2ccccc12)C(=O)O; TBMB = c1c(C[*:1])cc(C[*:3])cc1C[*:2]; Tle = CC(C)(C)[C@H](N)C(=O)O; βAla = NCCC(=O)O; Sar = CNCC(=O)O

Tested on: HT1080 xenograft
Experiment: In vivo efficacy test in HT1080 xenograft in BALB/c nude mice (Example 1)
Method: [table] • Species: Mus Musculus • Strain: […] Shanghai LC Laboratory Animal Co., LTD. […] The tumor cells were routinely subcultured twice weekly by trypsin-EDTA treatment. The cells growing in an exponential growth phase were harvested and counted for tumor inoculation. […] The test article administration and the animal numbers in each group were shown in the experimental design table. […] All the procedures related to animal handling, care and the treatment in the study were performed according to the guidelines approved by the Institutional Animal Care and Use Committee (IACUC) of WuXi AppTec, following the guidance of the Association for Assessment and Accreditation of Laboratory Animal Care (AAALAC). At the time of routine monitoring, the animals were daily checked for any effects of tumor growth and treatments on normal behavior such as mobility, food and water consumption (by looking only), body weight gain/loss, eye/hair matting and any other abnormal effect as stated in the protocol. Death and observed clinical signs were recorded on the basis of the numbers of animals within each subset. The major endpoint was to see if the tumor growth could be delayed or mice could be cured. […] The tumor size was then used for calculations of T/C value. The T/C value (in percent) is an indication of antitumor effectiveness; T and C are the mean volumes of the treated and control groups, respectively, on a given day. TGI was calculated for each group using the formula: […] Ti is the average tumor volume of a treatment group on a given day, TO is the average tumor volume of the treatment group on the day of treatment start, Vi is the average tumor volume of the vehicle control group on the same day with Ti, and VO is the average tumor volume of the vehicle group on the day of treatment start. Summary statistics, including mean and the standard error of the mean (SEM), are provided for the tumor volume of each group at each time point. Statistical analysis of difference in tumor volume among the groups was conducted on the data obtained at the best therapeutic time point after the final dose. A one-way ANOVA was performed to compare tumor volume among groups, and when a significant F-statistics (a ratio of treatment variance to the error variance) was obtained, comparisons between groups were carried out with Games-Howell test. All data were analyzed using Prism.

BT17BDC70: Reference bicyclic peptide drug conjugate (Tet-MMAE); BICY comprises βAla-Sar10-A-(SEQ ID NO: 1) ([βAla][Sar][Sar][Sar][Sar][Sar][Sar][Sar][Sar][Sar][Sar]AC[dA]NE[1Nal][dA]CEDFYD[Tle]C-NH2; linker 13-19-26 via TBMB; also: Tet-MMAE conjugate)
Antitumor activity (in words) (0.1 mg/kg biw): did not produce significant antitumor activity | Antitumor activity (in words) (0.3 mg/kg biw): did not produce significant antitumor activity | Tumor volume (mean ± SEM) (0.1 mpk iv biw, day 0 after the start of treatment): 170 ± 21 mm^3 | Tumor volume (mean ± SEM) (0.1 mpk iv biw, day 2): 400 ± 45 mm^3 | Tumor volume (mean ± SEM) (0.1 mpk iv biw, day 4): 557 ± 23 mm^3 | Tumor volume (mean ± SEM) (0.1 mpk iv biw, day 7): 1017 ± 180 mm^3 | Tumor volume (mean ± SEM) (0.1 mpk iv biw, day 9): 1102 ± 295 mm^3 | Tumor volume (mean ± SEM) (0.1 mpk iv biw, day 11): 1133 ± 203 mm^3 | T/C (0.1 mpk iv biw, day 14): 129.9% | TGI (0.1 mpk iv biw, day 14): −36.3% | Tumor volume (mean ± SEM) (0.1 mpk iv biw, day 14): 1315 mm^3 and 1315 ± 287 mm^3 | Tumor volume (mean ± SEM) (0.3 mpk iv biw, day 0 after the start of treatment): 170 ± 27 mm^3 | Tumor volume (mean ± SEM) (0.3 mpk iv biw, day 2): 371 ± 63 mm^3 | Tumor volume (mean ± SEM) (0.3 mpk iv biw, day 4): 501 ± 91 mm^3 | Tumor volume (mean ± SEM) (0.3 mpk iv biw, day 7): 703 ± 69 mm^3 | Tumor volume (mean ± SEM) (0.3 mpk iv biw, day 9): 695 ± 60 mm^3 | Tumor volume (mean ± SEM) (0.3 mpk iv biw, day 11): 745 ± 60 mm^3 | T/C (0.3 mpk iv biw, day 14): 89.2% | TGI (0.3 mpk iv biw, day 14): 12.8% | Tumor volume (mean ± SEM) (0.3 mpk iv biw, day 14): 903 mm^3 and 903 ± 67 mm^3 | Antitumor activity (in words) (over all doses tested): did not produce significant antitumor activity
